Patent EP4763845A1, “CYANO AROMATIC RING DERIVATIVE AND PHARMACEUTICAL USE THEREOF” (Haisco Pharmaceutical Group Co., Ltd., priority 2023, dated 2025)
Read-outs that look alike come from different tables or passages of the source.

Tests used:
[1] = test system: Human CD34+ Hematopoietic stem cells; experiment: Human CD34+ hematopoietic stem cell proliferation inhibition experiment; format: cell-based; conditions: 168 h, inhibitory activity against the proliferation of CD34+ hematopoietic stem cells, 7 days
Method: Human CD34+ Hematopoietic stem cells (TPCS, Cat.hmPB34-P-2CW) are CD34-positive stem cells obtained from human PBMCs through immunomagnetic bead sorting. The culture conditions are as follows: DPBS (Gibco, Cat.14190-144) +StemSpan SFEM II ([…], Cat.9655) +1X StemSpan CD34+ Expansion Supplement ([…], Cat.2691). First, 40 nL of DMSO, the positive reference compound Talazoparib, or the test compounds were respectively added to a 384-well plate (Corning, Cat. 3764). Then, a cell suspension was added at 400 cells per well in 40 µL of medium, resulting in final concentrations of 0.1% DMSO, 3 µM Talazoparib, or various concentrations of the compounds in each well. The plate was centrifuged at room temperature at 1000 rpm for 1 minute, followed by incubation for 7 days in a 37°C, 5% CO2 incubator. Following incubation, 20 µL of CellTiter-Glo Reagent (Promega, Cat. G7573) was directly added to each well, and the plate was centrifuged at room temperature at 1000 rpm for 1 minute, followed by incubation for 20 minutes in the dark. Following incubation, the chemiluminescent signal (CFU) was read and recorded using an Envision multimode microplate reader (PerkinElmer, Cat. 2104). The cell proliferation inhibition rate at various compound concentrations was calculated according to Equation (3), where CFUhigh control represents the average signal value of the DMSO group, CFUlow control represents the average signal value of the Talazoparib group, and CFUcompound represents the average signal value of the compound-treated group. The processed data obtained from Equation (3) were analysed using XLfit or GraphPad Prism software, and a four-parameter curve fitting model was applied to calculate the compound concentration corresponding to a 50% inhibition rate, i.e., the IC50 value. Inhibition% = (CFUhigh control−CFUcompound)/(CFUhigh control−CFUlow control) × 100% [formula]

AR protein = biological target: T1, AR protein (Homo sapiens, UniProt P10275); experiment: Detection of AR degradation in VCaP cells (automated western blot); format: cell-based; conditions: degradation of AR protein in VCaP cells, 24 hours incubation
T1 construct: VCap is a human prostate cancer cell line purchased from ATCC; host or cells: VCaP human prostate cancer cells
T1 sequence (P10275 1-920): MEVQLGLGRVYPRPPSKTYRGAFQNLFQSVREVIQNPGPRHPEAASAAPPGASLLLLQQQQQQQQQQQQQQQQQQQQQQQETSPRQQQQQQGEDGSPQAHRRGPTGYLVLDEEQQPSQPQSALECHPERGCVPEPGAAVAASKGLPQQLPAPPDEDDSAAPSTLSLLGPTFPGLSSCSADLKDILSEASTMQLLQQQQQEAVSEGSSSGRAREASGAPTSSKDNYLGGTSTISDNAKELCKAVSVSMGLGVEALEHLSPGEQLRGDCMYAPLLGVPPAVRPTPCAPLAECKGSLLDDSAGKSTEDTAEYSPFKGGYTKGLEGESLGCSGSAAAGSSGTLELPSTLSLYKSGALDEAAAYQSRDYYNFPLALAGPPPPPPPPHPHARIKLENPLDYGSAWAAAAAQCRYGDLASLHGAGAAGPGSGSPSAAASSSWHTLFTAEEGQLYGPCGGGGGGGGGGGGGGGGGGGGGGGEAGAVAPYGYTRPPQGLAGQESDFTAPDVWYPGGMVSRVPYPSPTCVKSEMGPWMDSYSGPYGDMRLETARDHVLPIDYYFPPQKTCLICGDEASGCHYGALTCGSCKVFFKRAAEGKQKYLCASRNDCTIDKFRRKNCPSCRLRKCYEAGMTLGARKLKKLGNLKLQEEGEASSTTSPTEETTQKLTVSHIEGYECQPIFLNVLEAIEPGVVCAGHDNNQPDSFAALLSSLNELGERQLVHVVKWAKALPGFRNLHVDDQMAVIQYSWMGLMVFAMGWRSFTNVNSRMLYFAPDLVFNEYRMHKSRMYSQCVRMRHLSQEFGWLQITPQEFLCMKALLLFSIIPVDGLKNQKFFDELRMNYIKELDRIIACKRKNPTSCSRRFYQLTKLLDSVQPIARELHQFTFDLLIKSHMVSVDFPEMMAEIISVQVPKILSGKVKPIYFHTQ
In short: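 VCaP cells (5 × 10^5/well) were treated with compounds at various concentrations for 24 h at 37°C. Lysate AR level was quantified by automated capillary western blot, normalised to β-actin and expressed relative to solvent control. DC50 came from four-parameter nonlinear regression; degradation rate = 100 − AR%.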

VCaP cells = experiment: VCaP cell proliferation inhibition experiment (CellTiter-Glo); format: cell-based; conditions: Homo sapiens, 168 h
Method: After centrifugation and resuspension, viable cell counting was performed using a Vi-Cell XR cell counter. […] Then, 180 µl of the cell suspension was added per well to a 96-well cell culture plate at a cell density of 7,500 cells/well. At the time of seeding, T0 wells were also prepared. The following day, R1881 at a final concentration of 0.1 nM and compounds at various concentrations were added. The plate was placed back into the incubator and cultured for an additional 7 days. At the time of compound addition, the T0 plate was measured using the CellTiter-Glo (CTG) kit (Promega, Cat. No. G7572) and recorded as RLU0. Following incubation, 75 µl of pre-thawed and room temperature-equilibrated CellTiter-Glo solution was added to each well. […] The results were processed according to Equation (2). […] Growth% = (RLUcompound−RLU0)/(RLUcontrol−RLU0) × 100% [formula]

[2] = Pharmacokinetic test in mice; format: in vivo, ICR mice; conditions: i.g. (5 mg/kg), Vehicle 3: 5% DMSO+5% Solutol+90% (20% SBE-β-CD); for AUC(0-t): mouse, plasma, po
Method: (§1) Experimental objective: In this experiment, a single dose of the test compound was administered to ICR mice via intravenous administration and intragastric gavage, and the concentration of the test compound in plasma of the mice was measured to evaluate the pharmacokinetic profile of the test compound in the mice.
Experimental animals: Male ICR mice, 6 mice/compound, purchased from Chengdu Ddossy Experimental Animals Co., Ltd.
(§2) Experimental method: On the day of the experiment, 6 SD mice were randomly grouped according to their body weights. The animals were fasted with water available for 12 to 14 h one day before the administration, and were fed 4 h after the administration. Table 6 Administration information of pharmacokinetic test in mice
Sampling: Before and after the administration, 0.15 mL of blood was taken from the orbits under isoflurane anaesthesia, and placed in an EDTAK2 centrifuge tube. Centrifugation was carried out at 5000 rpm at 4°C for 10 min, and the plasma was collected.
The plasma collection time points for PO groups were 0, 5 min, 15 min, 30 min, 1 h, 2 h, 4 h, 7 h, 24 h, and 48 h.
The plasma collection time points for IV groups were 0, 5 min, 15 min, 30 min, 1 h, 2 h, 4 h, 7 h, 24 h, and 48 h.
Before analysis and detection, all samples were stored at -60°C. The samples were analysed quantitatively by LC-MS/MS. Table 7 Pharmacokinetic parameters of compounds of the present invention in plasma of mice

[3] = Pharmacokinetic test in rats; format: in vivo, SD rats; conditions: i.g. (5 mg/kg), vehicle 5% DMSO+5% Solutol+90% (20% SBE-β-CD); for AUC(0-t): rat, plasma, po
Method: as §1, with “SD rats” for “ICR mice”, “rats” for “mice”, “rats.” for “mice.”
Experimental animals: Male SD rats, 200-220 g, 6 rats/compound, purchased from Chengdu Ddossy Experimental Animals Co., Ltd.
as §2, with “SD rats” for “SD mice”, “Table 3” for “Table 6”, “in rats” for “in mice”
Sampling: Before and after the administration, 0.1 mL of blood was taken from the orbits under isoflurane anaesthesia, and placed in an EDTAK2 centrifuge tube. Centrifugation was carried out at 5000 rpm at 4°C for 10 min, and the plasma was collected.
The plasma collection time points for IV&PO groups were 0, 5 min, 15 min, 30 min, 1 h, 2 h, 4 h, 7 h, 24 h, and 48 h.
Before analysis and detection, all samples were stored at -60°C. The samples were analysed quantitatively by LC-MS/MS. Table 4 Pharmacokinetic parameters of compounds of the present invention in plasma of rats

hERG potassium channel = biological target: T2, hERG potassium channel (Homo sapiens, UniProt Q12809); experiment: hERG potassium ion channel test (manual patch-clamp, CHO cells); format: cell-based; conditions: chinese hamster; inhibitory activity against hERG potassium channel current, CHO cells, whole cell patch-clamp; read-out: IC50
T2 construct: expressed in transfected cells; host or cells: CHO cells stably expressing hERG
Excerpt: Experimental platform: Electrophysiological manual patch-clamp system
Cell line: Chinese hamster ovary (CHO) cell lines stably expressing hERG potassium ion channel
Experimental method: In Chinese Hamster Ovary (CHO) cells stably expressing hERG potassium channel, whole cell patch-clamp technique was used to record hERG potassium channel current at room temperature. The glass microelectrode was made of a glass electrode blank (BF150-86-10, Sutter) by a puller. The tip resistance after filling the liquid in the electrode was about 2-5 MΩ. The glass microelectrode can be connected to the patch-clamp amplifier by inserting the glass microelectrode into an amplifier probe. The clamping voltage and data recording were controlled and recorded by the pClamp 10 software through a computer. The sampling frequency was 10 kHz, and the filtering frequency was 2 kHz. After the whole cell records were obtained, the cells were clamped at -80 mV, and the step voltage that induced the hERG potassium current (I hERG) was depolarised from -80 mV to +20 mV for 2 s, then repolarised to -50 mV, and returned to -80 mV after 1 s. This voltage stimulation was given every 10 s, and the administration process was started after the hERG potassium current was confirmed to be stable (at least 1 minute). The compound was administered for at least 1 minute at each test concentration, and at least 2 cells (n ≥ 2) were tested at each concentration.
Data processing: Data analysis processing was carried out by using pClamp 10, GraphPad Prism 5 and Excel software.
Compound IC50 was calculated using GraphPad Prism 5 software by fitting according to the following equation: Y = Bottom + (Top−Bottom)/(1+10^(∧)((LogIC50−X)*HillSlope)) [formula] where X represents the Log value of the tested concentration of the test sample, Y represents the inhibition percentage at the corresponding concentration, and Bottom and Top represent the minimum and maximum inhibition percentage, respectively.

T2 sequence (Q12809 whole entry): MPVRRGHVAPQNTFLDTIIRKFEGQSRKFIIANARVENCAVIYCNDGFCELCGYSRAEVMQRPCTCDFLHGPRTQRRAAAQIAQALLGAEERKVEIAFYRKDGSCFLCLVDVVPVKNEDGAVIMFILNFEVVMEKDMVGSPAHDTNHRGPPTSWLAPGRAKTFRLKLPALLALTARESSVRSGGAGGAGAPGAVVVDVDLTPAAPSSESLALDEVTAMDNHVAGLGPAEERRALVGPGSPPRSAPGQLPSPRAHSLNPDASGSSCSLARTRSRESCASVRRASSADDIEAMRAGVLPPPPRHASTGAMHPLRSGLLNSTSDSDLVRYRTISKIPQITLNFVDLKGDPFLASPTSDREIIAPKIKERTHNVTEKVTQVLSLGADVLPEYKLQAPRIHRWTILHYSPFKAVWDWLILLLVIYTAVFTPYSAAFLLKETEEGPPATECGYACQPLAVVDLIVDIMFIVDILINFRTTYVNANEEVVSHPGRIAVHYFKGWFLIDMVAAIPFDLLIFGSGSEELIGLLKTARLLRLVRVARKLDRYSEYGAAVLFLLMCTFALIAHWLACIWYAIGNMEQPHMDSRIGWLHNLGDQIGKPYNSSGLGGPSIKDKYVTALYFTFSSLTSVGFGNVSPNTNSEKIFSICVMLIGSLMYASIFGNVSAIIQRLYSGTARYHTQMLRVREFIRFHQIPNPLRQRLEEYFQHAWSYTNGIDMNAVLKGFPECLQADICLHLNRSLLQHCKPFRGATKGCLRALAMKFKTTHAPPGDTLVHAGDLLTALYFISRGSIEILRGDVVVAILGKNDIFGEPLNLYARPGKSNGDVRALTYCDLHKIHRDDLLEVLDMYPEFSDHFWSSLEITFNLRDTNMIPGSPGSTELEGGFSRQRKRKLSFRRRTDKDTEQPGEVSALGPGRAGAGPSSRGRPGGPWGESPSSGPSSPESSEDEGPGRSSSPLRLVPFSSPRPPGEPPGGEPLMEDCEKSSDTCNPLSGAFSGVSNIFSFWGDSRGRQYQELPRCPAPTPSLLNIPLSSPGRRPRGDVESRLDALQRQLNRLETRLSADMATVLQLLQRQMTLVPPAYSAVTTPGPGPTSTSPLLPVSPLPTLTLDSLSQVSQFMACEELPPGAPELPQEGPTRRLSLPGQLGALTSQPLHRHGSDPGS

SMILES	IC50 [1] [µM]	DC50 (AR protein; read-out: DC50) [nM]	GI50 (VCaP cells) [nM]	F [2] [%]	AUC(0-t) [2] [ng·h/mL]	F [3]	AUC(0-t) [3] [ng·h/mL]	DC50 (AR protein) [nM]	IC50 (hERG potassium channel) [µM]
COc1cc(O[C@H]2C(C)(C)[C@H](NC(=O)c3ccc(N4CCC5(CC4)CC(CN4CCN6c7cc(F)c(C(=O)N[C@H]8CCC(=O)NC8=O)cc7CC[C@H]6C4)C5)cc3)C2(C)C)ccc1C#N [Trifluoroacetate of compound 7]	> 10	< 100							
COc1cc(O[C@H]2C(C)(C)[C@H](NC(=O)c3ccc(N4CCC(CN5CCN6c7cc(F)c(C8CCC(=O)NC8=O)cc7CC[C@H]6C5)CC4)nn3)C2(C)C)ccc1C#N (stereo partly drawn) [Trifluoroacetate of compound 61]		< 100	< 300	98.8±12	28500 ± 3460	43.5+14%	5460		
COc1cc(O[C@H]2C(C)(C)[C@H](NC(=O)c3ccc(N4CCC(CN5CCN6c7cc(F)c(C8CCC(=O)NC8=O)cc7CC[C@@H]6C5)CC4)nn3)C2(C)C)ccc1C#N (stereo partly drawn) [Trifluoroacetate of compound 60]			< 300	84.2±8.4	41600 ± 4140	57.5±3.0%	6600 ± 349	< 100	
COc1cc(O[C@H]2C(C)(C)[C@H](NC(=O)c3ccc(N4CCC(CN5CCN6c7cc(F)c(C(=O)N[C@H]8CCC(=O)NC8=O)cc7CC[C@@H]6C5)CC4)cc3)C2(C)C)ccc1C#N [Compound 11]	> 10	< 100	< 300						> 40
